The record followed here is patent US20170260169A1, “INHIBITORS FOR STEROID RESPONSE ELEMENTS AND RNA POLYMERASE II AND RELATED METHODS” (priority 2007, published 2017).

The subject of data set [1] is RPB1. Briefly: RPB1 protein ELISA in LNCaP cells. Type of data set: cell-based. The settings on record: polyamide 10 μM 72 hr; doxorubicin 1 μM 24 hr. The protocol: […] Cells treated with DMSO vehicle and 1 μM doxorubicin for 24 h were used as control. Cellular RBP1 levels were determined by a RPB1 specific ELISA kit (Cusabio Life Sciences) according to manufacturer's instructions. Total cellular p53 protein level was determined with a pan-p53 ELISA kit (Roche) according to manufacturer's instructions. Assays were performed in biological triplicates.
In general terms: In an ELISA, binding on a coated surface is turned into a signal by an enzyme label.

Data set [2] relates to binding of LNCaP nuclear extract factors to the ARE site in the PSA promoter. Description: Electrophoretic mobility shift assay with DHT-stimulated LNCaP nuclear extract. In kind it is biochemical. On the procedure: containing the PSA promoter ARE (underlined) was end-labeled with ^32P and annealed to its complement. Polyamides 1 and 2 were incubated with the duplex for 3 h in previously optimized buffer conditions (45). Nuclear extract from DHT-treated LNCaP cells (Genetex, San Antonio, Tex.) was then added for an additional 45 min. Complexes were run on a 5% polyacrylamide gel and visualized on a phosphorimager.
The effects of polyamides 1 and 2 on the binding of factors present in the nuclear extract isolated from DHT-stimulated LNCaP cells to the ARE site in the PSA promoter was measured by an electrophoretic mobility shift assay (FIG. 8D).
(In general: A gel shift assay detects complexes by their altered migration in electrophoresis.)

Data set [3] deals with GR occupancy at the GILZ enhancer. Briefly: Chromatin immunoprecipitation with anti-GR, GILZ enhancer, A549 cells. Type of data set: cell-based. On the procedure:
A549 cells were plated in 15-cm diameter plates. Media, polyamide treatment, time course, and […] were the same as described above. After dexamethasone treatment, cells were treated with 1% formaldehyde for 10 min. Chromatin was isolated and sheared. Antibodies to GR (graciously gifted by Keith Yamamoto) were used to immunoprecipitate GR-bound DNA fragments. Crosslinks were reversed, and PCRs using primers targeted to the regions of interest were used to assess enrichment of bound fragments as compared with mock-precipitated (no antibody) controls. PCRs were monitored with SYBR Green PCR Master Mix (Applied Biosystems) on an ABI 7300 instrument. Primer sequences and a more detailed experimental protocol are available upon request.

Data set [4] has as its system GILZ enhancer GRE2. Description: Quantitative DNase I footprint titration on pKAM5 fragment, GRE2. Type of data set: binding. The protocol:
Detailed experimental protocols are reported elsewhere (44). The GILZ enhancer contains two GREs separated by 22 base pairs (46). GRE 1 is 5'-[NT]=3' (SEQ ID NO:5) and GRE 2 is […] ID NO:7). The DNA binding of polyamides 1 and 2 on these sequences was measured by quantitative DNase I footprint. […] […]).

The subject of data set [5] is PSA mRNA expression in LNAR cells. Description: PSA mRNA expression in LNAR cells (hormone refractory, over-express AR). In kind it is cell-based.
Description: The cell line LNAR was used, which has been engineered to over-express AR (14). LNAR cells over-express AR and form hormone refractory tumors when xenografted in mice (14).
In data set [6] the test system is LNCaP xenografts. Briefly: LNCaP xenografts in male NSG mice. Type of data set: in vivo. On the procedure: All mice experiments were conducted under an approved protocol by the Institutional Animal Care and Use Committee of the California Institute of Technology. Male NOD scid gamma (NSG) mice were purchased from The Jackson Laboratory. The animals were individually caged and maintained on a standard light-dark cycle. NSG mice were engrafted with LNCaP cells (2.5 million cells) in a mixture of 1:1 media and matrigel in the left flank. Tumors were grown to ˜100 mm^3 (L×W^2) before beginning treatment with compound or vehicle. Py-Im polyamide 77 was administered once every 3 days in a 5% DMSO:PBS vehicle solution until the experiment endpoint.
To investigate if polyamide 77 could be detected in peripheral blood after SC injections, 120 nmol of 77 (in 5% DMSO/PBS) was injected into the right flank of four C57BL/6 mice. Blood was collected from anesthetized mice via retroorbital collection at 5 minutes, 4 h, and 12 h after injection, then processed by methods previously described and analyzed by HPLC (35). For measurement of serum PSA (KLK3) and uric acid, blood was collected from anesthetized mice via retroorbital collection at experimental endpoint and serum was separated from blood by centrifugation. Serum PSA (KLK3) was measured by ELISA (R&D systems) according to manufacturer's instructions. Uric acid was measured as described (36).
Tumors were resected immediately after euthanasia and fixed in neutral buffered formalin. Selected samples were embedded in paraffin, sectioned and stained with hematoxylin and eosin (H&E). Selected sections were assessed by deoxynucleotidyltransferase dUTP nick-end labeling (TUNEL) as described (45).
Mice experiments were conducted under an approved protocol by the Institutional Animal Care and Use Committee of the California Institute of Technology. Male C57BL6/J mice and male NSG mice were purchased from The Jackson Laboratory. All animals were maintained on a standard light-dark cycle. LNCaP cells (2.5 million cells) were engrafted in a mixture of 1:1 media and matrigel in the left flank of NSG mice. Tumors were allowed grow to ˜200 mm^3 (0.5×L×W^2) before treatment. Py-Im polyamide 78 was administered by SC injection once every 3 d at 1 mg/kg in a 20% (vol/vol) DMSO:Normal saline vehicle solution for 6 injections. Animals were sacrificed two days after the final injection. Animal weight and general health were monitored daily. Fourteen animals were used for each treatment group.

The mark [7] stands for this setting: 20 nmol SC every three days, three injections.

For `CN(CCCNC(=O)c1cccc(C(=O)O)c1)CCCNC(=O)c1cc(NC(=O)c2cc(NC(=O)c3cc(NC(=O)c4nc(NC(=O)[C@H](N)CCNC(=O)c5cc(NC(=O)c6cc(NC(=O)c7cc(NC(=O)c8nccn8C)cn7C)cn6C)cn5C)cn4C)cn3C)cn2C)cn1C` [Polyamide 1, ImPyPyPy-2-(R)H^2Nγ-ImPyPyPy-NHMe-IPA], in data set [1], the RPB1 protein result was “decreases”. In data set [2], the “concentration inhibiting binding to the labeled duplex” value is no less than 10 nM. Further, the “occupancy of GR at the GILZ enhancer” value in data set [3] (1 μM as printed) is “decreased occupancy”. In data set [3] (10 μM, FIG. 17 legend), the “GR occupancy at the GILZ enhancer” value is reported as “decreased”. Also, the Ka in data set [4] is recorded as 8.8±1.8×10^9. The “effect on DHT-induced PSA mRNA expression in LNAR cells” value in data set [5] is listed as “maintains efficacy”. Further, in data set [6] (setting [7]), the “tumor weight, mean” value turned out to be 112 mg; the “tumor weight, median” value stood at 94 mg; the “tumor weight, range” value fell in the range of 47 to 201 mg. In data set [6] (20 nmol, three injections), the “body weight, LNCaP tumor-bearing NSG mice” value is given as “exhibited weight loss”; the “distress and weight, tumor-free NSG mice” value is “no signs of distress or weight loss”. The “reduction of tumor growth” value in data set [6] (after three rounds of treatment, vs vehicle) turned out to be 64%. For the same compound, in data set [6] (compared to vehicle), the “serum PSA post-treatment” value is reported as “lower”. Further, the “immunohistological analysis of tumors” value in data set [6] (mouse, in vivo) is reported as “evidence of cell death by TUNEL stain”. In data set [6] (tumor bearing mice, vs vehicle and non-tumor bearing treated mice), the serum uric acid entry is reported as “increases serum uric acid”.
